Test results: patent publication US7473541B2, “Identification, cloning, expression, and purification of three novel human calcium-independent phospholipase A2 family members possessing triacylglycerol lipase and acylglycerol transacylase activities” (priority 2004, dated 2009)

Legend:
[1] = molecular target: T1, iPLA2beta (Homo sapiens, UniProt O60733); details: previously demonstrated (refs 37-39); cited from earlier work
T1 sequence (O60733 1-806): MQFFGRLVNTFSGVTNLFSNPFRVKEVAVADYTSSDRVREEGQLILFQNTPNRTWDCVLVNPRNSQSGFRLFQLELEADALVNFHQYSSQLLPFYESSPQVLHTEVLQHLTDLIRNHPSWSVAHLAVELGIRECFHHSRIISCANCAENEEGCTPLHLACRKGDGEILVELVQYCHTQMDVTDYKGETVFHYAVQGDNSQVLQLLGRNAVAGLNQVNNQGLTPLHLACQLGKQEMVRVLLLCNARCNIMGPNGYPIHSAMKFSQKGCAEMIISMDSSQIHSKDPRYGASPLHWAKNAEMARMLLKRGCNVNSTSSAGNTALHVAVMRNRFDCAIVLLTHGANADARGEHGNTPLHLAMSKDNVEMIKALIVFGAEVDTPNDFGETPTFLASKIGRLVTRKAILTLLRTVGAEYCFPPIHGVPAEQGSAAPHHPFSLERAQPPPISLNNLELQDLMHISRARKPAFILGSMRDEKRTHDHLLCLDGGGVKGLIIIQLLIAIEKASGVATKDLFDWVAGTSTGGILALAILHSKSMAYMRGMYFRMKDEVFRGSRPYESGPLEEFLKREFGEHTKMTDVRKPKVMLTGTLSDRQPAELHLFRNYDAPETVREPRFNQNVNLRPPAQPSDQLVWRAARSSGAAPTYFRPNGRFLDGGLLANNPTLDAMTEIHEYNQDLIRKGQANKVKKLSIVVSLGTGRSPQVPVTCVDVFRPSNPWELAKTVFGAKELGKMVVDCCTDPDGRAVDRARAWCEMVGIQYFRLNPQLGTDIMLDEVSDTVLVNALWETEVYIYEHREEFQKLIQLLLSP

[2] = molecular target: iPLA2epsilon, iPLA2zeta, and iPLA2eta; assay: Triglyceride lipase activity inhibition, summary over the three isoforms; format: biochemical, human; details: range over iPLA2epsilon, zeta, eta; read-out: IC50, triglyceride lipase activity of each of the three isoforms
Method: (§1) Assay for Triolein Lipase Activity—Sample fractions were incubated in 85 mM potassium phosphate, pH 7.0 containing 2 mM EDTA and 2 mM DTT for 15 min at 37° C. in the presence of a suspension of 100 microM [9,10-^3H(N)]-triolein (100 microCi/micromol) in 25 microM egg yolk lecithin, and 100 microM sodium taurocholate. In some reactions, BEL was added at the indicated concentrations and incubated with enzyme at room temperature for 3 min prior to the addition of radiolabeled substrate. After extraction of radiolabeled reaction products and remaining substrate into butanol, samples were spotted on TLC plates, overlaid with oleic acid standard, dried, and developed in chloroformlmethanol/NH4OH (65:25:5). The region of the plate corresponding to the oleic acid standard (visualized by iodine staining) was scraped into scintillation vials and quantified by liquid scintillation spectrometry.

[3] = molecular target: T2, iPLA2eta (Homo sapiens, UniProt P41247); assay: Triolein lipase activity inhibition by BEL; format: biochemical; details: pre-incubated with 0.1-2 microM BEL prior to substrate
T2 construct: Full-length human iPLA2zeta (TTS-2.2) and iPLA2eta (GS2) were amplified by PCR; made in house; host or cells: Sf9 insect cells (baculovirus)
T2 sequence (P41247 1-253): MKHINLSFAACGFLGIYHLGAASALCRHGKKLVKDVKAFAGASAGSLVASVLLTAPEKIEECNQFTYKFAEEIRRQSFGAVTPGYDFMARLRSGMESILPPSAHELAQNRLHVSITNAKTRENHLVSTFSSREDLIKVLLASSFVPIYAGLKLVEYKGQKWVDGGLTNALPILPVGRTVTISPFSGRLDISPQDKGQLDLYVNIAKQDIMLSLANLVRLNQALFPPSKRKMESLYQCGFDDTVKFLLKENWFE
Method: as §1
(§2) To determine whether the three new iPLA2 family members were inhibitable by BEL, each enzyme was pre-incubated with 0.1-2 microM BEL or ethanol vehicle alone prior to measuring triolein lipase activity (FIG. 5). […] Considering the hydrophobic nature of the acyl-glycerol substrates of iPLA2epsilon, iPLA2zeta, and iPLA2eta identified herein, it is not surprising that BEL would have access to the active sites of these enzymes.

[4] = molecular target: T3, iPLA2zeta (Homo sapiens, UniProt Q96AD5, L481P); assay: Triolein lipase activity inhibition by BEL; format: biochemical; details: pre-incubated with 0.1-2 microM BEL prior to substrate
T3 construct: Full-length human iPLA2zeta (TTS-2.2) and iPLA2eta (GS2) were amplified by PCR; made in house; host or cells: Sf9 insect cells (baculovirus)
T3 sequence (Q96AD5 with tags, fused parts or gaps L481P): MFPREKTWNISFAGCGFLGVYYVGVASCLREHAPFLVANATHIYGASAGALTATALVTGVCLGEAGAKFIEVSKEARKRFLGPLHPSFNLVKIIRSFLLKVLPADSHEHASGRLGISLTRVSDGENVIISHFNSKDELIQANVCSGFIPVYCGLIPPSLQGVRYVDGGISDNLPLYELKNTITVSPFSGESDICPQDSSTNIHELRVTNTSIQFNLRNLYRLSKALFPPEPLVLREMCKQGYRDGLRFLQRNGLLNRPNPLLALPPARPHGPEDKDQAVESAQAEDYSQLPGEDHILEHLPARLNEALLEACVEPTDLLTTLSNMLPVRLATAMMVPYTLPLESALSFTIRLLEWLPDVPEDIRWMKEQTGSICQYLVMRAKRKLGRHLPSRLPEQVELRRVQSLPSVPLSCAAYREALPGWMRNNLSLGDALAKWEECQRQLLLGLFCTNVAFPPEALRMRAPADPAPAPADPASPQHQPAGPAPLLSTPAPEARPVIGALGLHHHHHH
Method: as §1, §2

[5] = molecular target: T4, iPLA2epsilon (Homo sapiens, UniProt Q9NST1, K434E); assay: Triolein lipase activity inhibition by BEL; format: biochemical; details: pre-incubated with 0.1-2 microM BEL prior to substrate
T4 construct: used as a template for PCR to obtain full-length CDNA for iPLA2epsilon; made in house; host or cells: Sf9 insect cells (baculovirus)
T4 sequence (Q9NST1 with tags, fused parts or gaps K434E): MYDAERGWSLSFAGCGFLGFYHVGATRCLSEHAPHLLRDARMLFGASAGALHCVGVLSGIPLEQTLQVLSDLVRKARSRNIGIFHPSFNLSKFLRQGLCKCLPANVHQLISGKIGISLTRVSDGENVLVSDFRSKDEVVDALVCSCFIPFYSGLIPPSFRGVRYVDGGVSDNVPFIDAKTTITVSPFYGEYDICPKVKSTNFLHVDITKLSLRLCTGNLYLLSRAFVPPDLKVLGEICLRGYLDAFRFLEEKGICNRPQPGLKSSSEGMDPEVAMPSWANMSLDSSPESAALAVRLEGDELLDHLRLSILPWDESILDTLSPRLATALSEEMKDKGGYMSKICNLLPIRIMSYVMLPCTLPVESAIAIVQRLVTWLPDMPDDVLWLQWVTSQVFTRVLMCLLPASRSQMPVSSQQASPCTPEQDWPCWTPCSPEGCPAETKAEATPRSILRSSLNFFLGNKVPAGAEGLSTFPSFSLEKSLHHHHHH
Method: as §1, §2

[6] = molecular target: T5, iPLA2gamma (Homo sapiens, UniProt Q9NP80); details: previously demonstrated (refs 37-39); cited from earlier work
T5 sequence (Q9NP80 1-782): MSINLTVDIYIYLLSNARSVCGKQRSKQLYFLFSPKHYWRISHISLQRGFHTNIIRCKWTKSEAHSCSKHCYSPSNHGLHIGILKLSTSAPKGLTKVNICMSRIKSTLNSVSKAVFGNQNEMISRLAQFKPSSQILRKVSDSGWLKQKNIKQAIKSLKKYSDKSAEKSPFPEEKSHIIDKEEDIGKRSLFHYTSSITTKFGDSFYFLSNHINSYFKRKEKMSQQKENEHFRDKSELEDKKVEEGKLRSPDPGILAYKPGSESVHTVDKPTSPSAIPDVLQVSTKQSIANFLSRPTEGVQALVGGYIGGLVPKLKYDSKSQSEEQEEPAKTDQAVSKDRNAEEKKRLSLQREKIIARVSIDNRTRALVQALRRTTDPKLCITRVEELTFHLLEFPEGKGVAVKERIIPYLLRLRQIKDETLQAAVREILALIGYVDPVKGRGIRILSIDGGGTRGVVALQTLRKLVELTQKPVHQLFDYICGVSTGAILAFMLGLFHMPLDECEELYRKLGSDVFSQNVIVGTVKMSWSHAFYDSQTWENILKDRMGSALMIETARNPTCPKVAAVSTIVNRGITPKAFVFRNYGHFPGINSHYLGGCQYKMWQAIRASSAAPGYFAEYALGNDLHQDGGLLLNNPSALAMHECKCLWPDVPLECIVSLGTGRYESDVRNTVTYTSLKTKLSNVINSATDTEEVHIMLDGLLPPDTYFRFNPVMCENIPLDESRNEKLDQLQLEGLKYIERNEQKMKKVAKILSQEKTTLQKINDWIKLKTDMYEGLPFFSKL

O=C1O/C(=C/Br)CCC1c1cccc2ccccc12 (stereo not drawn) [BEL, (E)-6-(bromomethylene)-3-(1-naphthalenyl)-2H-tetrahydropyran-2-one]
inhibition of iPLA2beta activity [1]: sub to low micromolar concentrations | IC50 [2]: 100 to 500 nM | IC50 [3]: ~100 nM | IC50 [4]: ~500 nM | IC50 [5]: ~100 nM | inhibition of iPLA2gamma activity [6]: sub to low micromolar concentrations
